According to patent US8304419B2, “Chemical compounds” (priority 2007, dated 2012):
Where a name gives a salt, the structure may show the parent alone. Read-outs that look alike come from different tables or passages of the source.

Tested on: HIV wild type (WTRVA)
Test: HeLa cell assay, wild type virus (WTRVA)
Assay type: cell-based, HIV-1
Set-up: scale not given here
Conditions: Human immunodeficiency virus 1, HeLa
[1] = HeLa-CD4-LTR-β-gal cells, wild type virus, read-out: WTRVA activity level
[2] = HeLa cell assay, read-out: IC50 against WTRVA

| Compound | IC50 [1] [nM] | IC50 [2] [nM] |
| --- | --- | --- |
| N#Cc1cc(Cl)cc(Oc2c(Cl)ccc(CNC(=O)c3cc4cc(N)ccc4[nH]3)c2F)c1 [Example 111, 5-amino-N-({4-chloro-3-[(3-chloro-5-cyanophenyl)oxy]-2-fluorophenyl}methyl)-1H-indole-2-carboxamide trifluoroacetate] | < 10 | – |
| CC(C)(C)OC(=O)Nc1cccc2cc(C(=O)NCc3ccc(Cl)c(Oc4cc(Cl)cc(C#N)c4)c3F)[nH]c12 [Example 112, 1,1-dimethylethyl (2-{[({4-chloro-3-[(3-chloro-5-cyanophenyl)oxy]-2-fluorophenyl}methyl)amino]carbonyl}-1H-indol-7-yl)carbamate] | 10 to 1000 | – |
| N#Cc1cc(Cl)cc(Oc2c(Cl)ccc(CNC(=O)c3cc4cccc(N)c4[nH]3)c2F)c1 [Example 113, 7-amino-N-({4-chloro-3-[(3-chloro-5-cyanophenyl)oxy]-2-fluorophenyl}methyl)-1H-indole-2-carboxamide] | < 10 | – |
| N#Cc1cc(Cl)cc(Oc2c(Cl)ccc(CNC(=O)c3cc4cc(NC(=O)c5ccncc5)ccc4[nH]3)c2F)c1 [Example 114, N-({4-chloro-3-[(3-chloro-5-cyanophenyl)oxy]-2-fluorophenyl}methyl)-5-[(4-pyridinylcarbonyl)amino]-1H-indole-2-carboxamide] | < 10 | – |
| N#Cc1cc(Cl)cc(Oc2c(Cl)ccc(CNC(=O)c3cc4cc(NC(=O)c5cccnc5)ccc4[nH]3)c2F)c1 [Example 115, N-({4-chloro-3-[(3-chloro-5-cyanophenyl)oxy]-2-fluorophenyl}methyl)-5-[(3-pyridinylcarbonyl)amino]-1H-indole-2-carboxamide] | < 10 | – |
| N#Cc1cc(Cl)cc(Oc2c(Cl)ccc(CNC(=O)c3cc4cc(NC(=O)CCN)ccc4[nH]3)c2F)c1 [Example 116, 5-(β-alanylamino)-N-({4-chloro-3-[(3-chloro-5-cyanophenyl)oxy]-2-fluorophenyl}methyl)-1H-indole-2-carboxamide] | < 10 | – |
| CC(C)(C)OC(=O)N1CCC[C@H]1C(=O)Nc1ccc2[nH]c(C(=O)NCc3ccc(Cl)c(Oc4cc(Cl)cc(C#N)c4)c3F)cc2c1 [Example 117, 1,1-dimethylethyl (2S)-2-{[(2-{[({4-chloro-3-[(3-chloro-5-cyanophenyl)oxy]-2-fluorophenyl}methyl)amino]carbonyl}-1H-indol-5-yl)amino]carbonyl}-1-pyrrolidinecarboxylate] | < 10 | – |
| N#Cc1cc(Cl)cc(Oc2c(Cl)ccc(CNC(=O)c3cc4cc(NC(=O)[C@@H]5CCCN5)ccc4[nH]3)c2F)c1 [Example 118, N-({4-chloro-3-[(3-chloro-5-cyanophenyl)oxy]-2-fluorophenyl}methyl)-5-(L-prolylamino)-1H-indole-2-carboxamide trifluoroacetate] | < 10 | – |
| CNCC(=O)Nc1ccc2[nH]c(C(=O)NCc3ccc(Cl)c(Oc4cc(Cl)cc(C#N)c4)c3F)cc2c1 [Example 119] | < 10 | – |
| N#Cc1cc(Cl)cc(Oc2c(Cl)ccc(CNC(=O)c3cc4cc(NC(=O)CN)ccc4[nH]3)c2F)c1 [Example 120, N-({4-chloro-3-[(3-chloro-5-cyanophenyl)oxy]-2-fluorophenyl}methyl)-5-(glycylamino)-1H-indole-2-carboxamide trifluoroacetate] | < 10 | – |
| CC(=O)Nc1ccc2[nH]c(C(=O)NCc3ccc(Cl)c(Oc4cc(Cl)cc(C#N)c4)c3F)cc2c1 [Example 121, 5-(acetylamino)-N-({4-chloro-3-[(3-chloro-5-cyanophenyl)oxy]-2-fluorophenyl}methyl)-1H-indole-2-carboxamide] | < 10 | – |
| CC(=O)Nc1ccc2cc(C(=O)NCc3ccc(Cl)c(Oc4cc(Cl)cc(C#N)c4)c3F)[nH]c2c1 [Example 122, 6-(acetylamino)-N-({4-chloro-3-[(3-chloro-5-cyanophenyl)oxy]-2-fluorophenyl}methyl)-1H-indole-2-carboxamide] | < 10 | – |
| N#Cc1cc(Cl)cc(Oc2c(Cl)ccc(CNC(=O)c3cc4ccc(N)cc4[nH]3)c2F)c1 [Example 123, 6-amino-N-({4-chloro-3-[(3-chloro-5-cyanophenyl)oxy]-2-fluorophenyl}methyl)-1H-indole-2-carboxamide trifluoroacetate] | < 10 | – |
| N#Cc1cc(Cl)cc(Oc2c(Cl)ccc(CNC(=O)c3nc4ccc([N+](=O)[O-])cc4[nH]3)c2F)c1 [Example 124, N-({4-chloro-3-[(3-chloro-5-cyanophenyl)oxy]-2-fluorophenyl}methyl)-5-nitro-1H-benzimidazole-2-carboxamide] | 10 to 1000 | – |
| CC(=O)Nc1ccc2[nH]c(C(=O)NCc3ccc(Cl)c(Oc4cc(Cl)cc(C#N)c4)c3F)nc2c1 [Example 125, 5-(acetylamino)-N-({4-chloro-3-[(3-chloro-5-cyanophenyl)oxy]-2-fluorophenyl}methyl)-1H-benzimidazole-2-carboxamide] | < 10 | – |
| CN(C)c1ccc2[nH]c(C(=O)NCc3ccc(Cl)c(Oc4cc(Cl)cc(C#N)c4)c3F)cc2c1 [Example 126, N-({4-chloro-3-[(3-chloro-5-cyanophenyl)oxy]-2-fluorophenyl}methyl)-5-(dimethylamino)-1H-indole-2-carboxamide] | < 10 | – |

| Compound | IC50 [1] [nM] | IC50 [2] [nM] |
| --- | --- | --- |
| N#Cc1cc(Cl)cc(Oc2c(Cl)ccc(CNC(=O)c3cc4cc(N(CC5CC5)CC5CC5)ccc4[nH]3)c2F)c1 [Example 127, 5-[bis(cyclopropylmethyl)amino]-N-({4-chloro-3-[(3-chloro-5-cyanophenyl)oxy]-2-fluorophenyl}methyl)-1H-indole-2-carboxamide] | 10 to 1000 | – |
| N#Cc1cc(Cl)cc(Oc2c(Cl)ccc(CNC(=O)c3[nH]ccc3Cl)c2F)c1 [Example 128, 3-chloro-N-({4-chloro-3-[(3-chloro-5-cyanophenyl)oxy]-2-fluorophenyl}methyl)-1H-pyrrole-2-carboxamide] | < 10 | < 10 |
| CN(Cc1ccc(Cl)c(Oc2cc(Cl)cc(C#N)c2)c1F)C(=O)c1ccc[nH]1 [Example 129, N-({4-chloro-3-[(3-chloro-5-cyanophenyl)oxy]-2-fluorophenyl}methyl)-N-methyl-1H-pyrrole-2-carboxamide] | < 10 | – |
| CN(Cc1ccc(Cl)c(Oc2cc(Cl)cc(C#N)c2)c1F)C(=O)c1ncc[nH]1 [Example 130, N-({4-chloro-3-[(3-chloro-5-cyanophenyl)oxy]-2-fluorophenyl}methyl)-N-methyl-1H-imidazole-2-carboxamide] | < 10 | – |
| CN(Cc1ccc(Cl)c(Oc2cc(Cl)cc(C#N)c2)c1F)C(=O)c1[nH]cnc1Cl [Example 132, 4-chloro-N-({4-chloro-3-[(3-chloro-5-cyanophenyl)oxy]-2-fluorophenyl}methyl)-N-methyl-1′-imidazole-5-carboxamide trifluoroacetate] | < 10 | – |
| N#Cc1cc(Cl)cc(Oc2c(Cl)ccc(CNC(=O)c3[nH]cnc3Br)c2F)c1 [Example 133, 4-bromo-N-({4-chloro-3-[(3-chloro-5-cyanophenyl)oxy]-2-fluorophenyl}methyl)-1H-imidazole-5-carboxamide trifluoroacetate] | < 10 | < 10 |
| Cc1nc(Br)c(C(=O)NCc2ccc(Cl)c(Oc3cc(Cl)cc(C#N)c3)c2F)[nH]1 [Example 134, 4-bromo-N-({4-chloro-3-[(3-chloro-5-cyanophenyl)oxy]-2-fluorophenyl}methyl)-2-methyl-1H-imidazole-5-carboxamide] | < 10 | – |
| CC(C)c1nc(Cl)c(C(=O)NCc2ccc(Cl)c(Oc3cc(Cl)cc(C#N)c3)c2F)[nH]1 [Example 135, 4-chloro-N-({4-chloro-3-[(3-chloro-5-cyanophenyl)oxy]-2-fluorophenyl}methyl)-2-(1-methylethyl)-1H-imidazole-5-carboxamide trifluoroacetate] | < 10 | – |
| N#Cc1cc(Cl)cc(Oc2c(Cl)ccc(CNC(=O)c3[nH]c(C4CC4)nc3Cl)c2F)c1 [Example 136, 4-chloro-N-({4-chloro-3-[(3-chloro-5-cyanophenyl)oxy]-2-fluorophenyl}methyl)-2-cyclopropyl-1H-imidazole-5-carboxamide trifluoroacetate] | < 10 | – |
| Cc1nc(Cl)c(C(=O)NCc2ccc(Cl)c(Oc3cc(Cl)cc(C#N)c3)c2F)[nH]1 [Example 137, 4-chloro-N-({4-chloro-3-[(3-chloro-5-cyanophenyl)oxy]-2-fluorophenyl}methyl)-2-methyl-1H-imidazole-5-carboxamide] | < 10 | – |
| CCCc1nc(Cl)c(C(=O)NCc2ccc(Cl)c(Oc3cc(Cl)cc(C#N)c3)c2F)[nH]1 [Example 139, 4-chloro-N-({4-chloro-3-[(3-chloro-5-cyanophenyl)oxy]-2-fluorophenyl}methyl)-2-propyl-1H-imidazole-5-carboxamide] | < 10 | – |
| CCCCc1nc(Cl)c(C(=O)NCc2ccc(Cl)c(Oc3cc(Cl)cc(C#N)c3)c2F)[nH]1 [Example 140, 2-butyl-4-chloro-N-({4-chloro-3-[(3-chloro-5-cyanophenyl)oxy]-2-fluorophenyl}methyl)-1H-imidazole-5-carboxamide trifluoroacetate] | < 10 | – |
| N#Cc1cc(Cl)cc(Oc2c(Cl)ccc(CNC(=O)c3[nH]c4cc(OCCO)ccc4c3Br)c2F)c1 [Example 141, 3-Bromo-N-({4-chloro-3-[(3-chloro-5-cyanophenyl)oxy]-2-fluorophenyl}methyl)-6-[(2-hydroxyethyl)oxy]-1H-indole-2-carboxamide] | < 10 | – |
| N#Cc1cc(Cl)cc(Oc2c(Cl)ccc(CNC(=O)c3cc4ccc(OCCO)cc4[nH]3)c2F)c1 [Example 142, N-({4-chloro-3-[(3-chloro-5-cyanophenyl)oxy]-2-fluorophenyl}methyl)-6-[(2-hydroxyethyl)oxy]-1H-indole-2-carboxamide] | < 10 | – |
| C=Cc1cc(C#N)cc(Oc2c(Cl)ccc(CNC(=O)c3[nH]cnc3Cl)c2F)c1 [Example 143, 4-chloro-N-({4-chloro-3-[(3-cyano-5-ethenylphenyl)oxy]-2-fluorophenyl}methyl)-1H-imidazole-5-carboxamide] | – | < 10 |
| N#Cc1cc(Cl)cc(Oc2c(Cl)ccc(CNC(=O)c3[nH]cnc3Cl)c2F)c1Cl [Example 144, 4-chloro-N-({4-chloro-3-[(2,5-dichloro-3-cyanophenyl)oxy]-2-fluorophenyl}methyl)-1H-imidazole-5-carboxamide] | – | < 10 |
